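Results reflect a 48-hour exposure of cells in 96-well plates to compound at five concentrations. TGI: concentration producing complete growth inhibition.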
Columns and labels:
Test in all cases: NCI-60 cell line screen, 48 h
MALME-3M melanoma = system: MALME-3M melanoma
DU-145 prostate = system: DU-145 prostate
HOP-92 NSCLC = system: HOP-92 NSCLC
CAKI-1 renal = system: CAKI-1 renal
ACHN renal = system: ACHN renal
COLO 205 colon = system: COLO 205 colon
LOX IMVI melanoma = system: LOX IMVI melanoma
SW-620 colon = system: SW-620 colon
SK-MEL-5 melanoma = system: SK-MEL-5 melanoma
PC-3 prostate = system: PC-3 prostate
UACC-257 melanoma = system: UACC-257 melanoma
M14 melanoma = system: M14 melanoma
HOP-62 NSCLC = system: HOP-62 NSCLC
SK-MEL-28 melanoma = system: SK-MEL-28 melanoma
MOLT-4 leukemia = system: MOLT-4 leukemia
NCI/ADR-RES ovarian = system: NCI/ADR-RES ovarian
EKVX NSCLC = system: EKVX NSCLC
SNB-75 CNS = system: SNB-75 CNS
SK-OV-3 ovarian = system: SK-OV-3 ovarian
SN12C renal = system: SN12C renal
OVCAR-5 ovarian = system: OVCAR-5 ovarian
HS 578T breast = system: HS 578T breast
MDA-N = system: MDA-N
SK-MEL-2 melanoma = system: SK-MEL-2 melanoma
IGROV1 ovarian = system: IGROV1 ovarian
CCRF-CEM leukemia = system: CCRF-CEM leukemia
A498 renal = system: A498 renal
HCT-15 colon = system: HCT-15 colon
TK-10 renal = system: TK-10 renal
786-0 renal = system: 786-0 renal
SF-268 CNS = system: SF-268 CNS
T-47D breast = system: T-47D breast
UACC-62 melanoma = system: UACC-62 melanoma
OVCAR-4 ovarian = system: OVCAR-4 ovarian
HT29 colon = system: HT29 colon
A549 NSCLC = system: A549 NSCLC
UO-31 renal = system: UO-31 renal
OVCAR-3 ovarian = system: OVCAR-3 ovarian
MDA-MB-231 breast = system: MDA-MB-231 breast
SNB-19 CNS = system: SNB-19 CNS
K-562 leukemia = system: K-562 leukemia
RPMI-8226 leukemia = system: RPMI-8226 leukemia
NCI-H226 lung = system: NCI-H226 lung
SF-295 CNS = system: SF-295 CNS
OVCAR-8 ovarian = system: OVCAR-8 ovarian
NCI-H522 lung = system: NCI-H522 lung
MDA-MB-435 = system: MDA-MB-435
HCT-116 colon = system: HCT-116 colon
U251 CNS = system: U251 CNS
BT-549 breast = system: BT-549 breast
RXF 393 renal = system: RXF 393 renal
KM12 colon = system: KM12 colon
NCI-H23 lung = system: NCI-H23 lung
HL-60(TB) leukemia = system: HL-60(TB) leukemia
SF-539 CNS = system: SF-539 CNS
NCI-H460 lung = system: NCI-H460 lung
HCC-2998 colon = system: HCC-2998 colon
SR leukemia = system: SR leukemia

## O=S(=O)(Nc1nc2ccccc2n1S(=O)(=O)c1ccccc1)c1ccccc1
MALME-3M melanoma
  TGI: > 100 µM
DU-145 prostate
  TGI: > 100 µM
HOP-92 NSCLC
  TGI: > 100 µM
CAKI-1 renal
  TGI: > 100 µM
ACHN renal
  TGI: 61.9 µM
COLO 205 colon
  TGI: > 100 µM
LOX IMVI melanoma
  TGI: > 100 µM
SW-620 colon
  TGI: > 100 µM
SK-MEL-5 melanoma
  TGI: > 100 µM
PC-3 prostate
  TGI: > 100 µM
UACC-257 melanoma
  TGI: > 100 µM
M14 melanoma
  TGI: > 100 µM
HOP-62 NSCLC
  TGI: > 100 µM
SK-MEL-28 melanoma
  TGI: > 100 µM
MOLT-4 leukemia
  TGI: > 100 µM
NCI/ADR-RES ovarian
  TGI: > 100 µM
EKVX NSCLC
  TGI: > 100 µM
SNB-75 CNS
  TGI: > 100 µM
SK-OV-3 ovarian
  TGI: > 100 µM
SN12C renal
  TGI: > 100 µM
OVCAR-5 ovarian
  TGI: > 100 µM
HS 578T breast
  TGI: > 100 µM
MDA-N
  TGI: > 100 µM
SK-MEL-2 melanoma
  TGI: > 100 µM
IGROV1 ovarian
  TGI: > 100 µM
CCRF-CEM leukemia
  TGI: 73.8 µM
A498 renal
  TGI: > 100 µM
HCT-15 colon
  TGI: > 100 µM
TK-10 renal
  TGI: > 100 µM
786-0 renal
  TGI: > 100 µM
SF-268 CNS
  TGI: > 100 µM
T-47D breast
  TGI: > 100 µM
UACC-62 melanoma
  TGI: > 100 µM
OVCAR-4 ovarian
  TGI: > 100 µM
HT29 colon
  TGI: > 100 µM
A549 NSCLC
  TGI: > 100 µM
UO-31 renal
  TGI: > 100 µM
OVCAR-3 ovarian
  TGI: > 100 µM
MDA-MB-231 breast
  TGI: > 100 µM
SNB-19 CNS
  TGI: > 100 µM
K-562 leukemia
  TGI: > 100 µM
RPMI-8226 leukemia
  TGI: > 100 µM
NCI-H226 lung
  TGI: > 100 µM
SF-295 CNS
  TGI: > 100 µM
OVCAR-8 ovarian
  TGI: > 100 µM
NCI-H522 lung
  TGI: > 100 µM
MDA-MB-435
  TGI: > 100 µM
HCT-116 colon
  TGI: > 100 µM
U251 CNS
  TGI: > 100 µM
BT-549 breast
  TGI: > 100 µM
RXF 393 renal
  TGI: > 100 µM
KM12 colon
  TGI: > 100 µM
NCI-H23 lung
  TGI: > 100 µM

## c1ccc2c(c1)N[C@@H]1c3[nH]c4ccccc4c3CC[C@H]21
MALME-3M melanoma
  TGI: 22.1 µM
DU-145 prostate
  TGI: 35.3 µM
HOP-92 NSCLC
  TGI: 30.6 µM
CAKI-1 renal
  TGI: 38.6 µM
ACHN renal
  TGI: 68.1 µM
COLO 205 colon
  TGI: 27.9 µM
LOX IMVI melanoma
  TGI: 29.5 µM
SW-620 colon
  TGI: 33.3 µM
SK-MEL-5 melanoma
  TGI: 27.3 µM
PC-3 prostate
  TGI: 24.6 µM
UACC-257 melanoma
  TGI: > 100 µM
M14 melanoma
  TGI: 26.4 µM
HOP-62 NSCLC
  TGI: 26.9 µM
SK-MEL-28 melanoma
  TGI: 35.3 µM
MOLT-4 leukemia
  TGI: 42 µM
NCI/ADR-RES ovarian
  TGI: 28 µM
EKVX NSCLC
  TGI: 37.2 µM
SNB-75 CNS
  TGI: 22.8 µM
SK-OV-3 ovarian
  TGI: 36.7 µM
SN12C renal
  TGI: 28.5 µM
OVCAR-5 ovarian
  TGI: 29.4 µM
HS 578T breast
  TGI: 25.9 µM
MDA-N
  TGI: 39.2 µM
SK-MEL-2 melanoma
  TGI: 31.7 µM
IGROV1 ovarian
  TGI: 20.9 µM
CCRF-CEM leukemia
  TGI: 36.9 µM
A498 renal
  TGI: 32 µM
HCT-15 colon
  TGI: 65.3 µM
TK-10 renal
  TGI: > 100 µM
786-0 renal
  TGI: 28.5 µM
HL-60(TB) leukemia
  TGI: 36.2 µM
SF-268 CNS
  TGI: 65.1 µM
T-47D breast
  TGI: 76.2 µM
UACC-62 melanoma
  TGI: 31.6 µM
HT29 colon
  TGI: 29.7 µM
A549 NSCLC
  TGI: 41.4 µM
UO-31 renal
  TGI: 37.2 µM
OVCAR-3 ovarian
  TGI: 27.3 µM
MDA-MB-231 breast
  TGI: 29.9 µM
SNB-19 CNS
  TGI: 37.9 µM
SF-539 CNS
  TGI: 31.4 µM
K-562 leukemia
  TGI: 27.8 µM
RPMI-8226 leukemia
  TGI: 59 µM
NCI-H226 lung
  TGI: 31.6 µM
SF-295 CNS
  TGI: 29.7 µM
OVCAR-8 ovarian
  TGI: 25.6 µM
NCI-H460 lung
  TGI: 33.9 µM
NCI-H522 lung
  TGI: 24.2 µM
MDA-MB-435
  TGI: 31.1 µM
HCT-116 colon
  TGI: 27.8 µM
U251 CNS
  TGI: 27.2 µM
BT-549 breast
  TGI: 37.7 µM
RXF 393 renal
  TGI: 32.6 µM
KM12 colon
  TGI: 30.7 µM
NCI-H23 lung
  TGI: 33 µM

## COc1ccc2c(c1)C(=O)C1(C2)[C@H](c2ccccc2)C2C(=O)c3cc(OC)ccc3C2[C@H]1c1ccccc1 (stereo not given in full)
MALME-3M melanoma
  TGI: > 100 µM
DU-145 prostate
  TGI: > 100 µM
HOP-92 NSCLC
  TGI: > 100 µM
CAKI-1 renal
  TGI: 5.63 µM
ACHN renal
  TGI: > 100 µM
COLO 205 colon
  TGI: > 100 µM
LOX IMVI melanoma
  TGI: > 100 µM
SW-620 colon
  TGI: > 100 µM
SK-MEL-5 melanoma
  TGI: > 100 µM
PC-3 prostate
  TGI: > 100 µM
UACC-257 melanoma
  TGI: > 100 µM
M14 melanoma
  TGI: > 100 µM
HOP-62 NSCLC
  TGI: > 100 µM
SK-MEL-28 melanoma
  TGI: > 100 µM
MOLT-4 leukemia
  TGI: > 100 µM
NCI/ADR-RES ovarian
  TGI: > 100 µM
EKVX NSCLC
  TGI: > 100 µM
SNB-75 CNS
  TGI: > 100 µM
SK-OV-3 ovarian
  TGI: > 100 µM
SN12C renal
  TGI: > 100 µM
OVCAR-5 ovarian
  TGI: > 100 µM
HS 578T breast
  TGI: > 100 µM
MDA-N
  TGI: > 100 µM
HCC-2998 colon
  TGI: > 100 µM
IGROV1 ovarian
  TGI: > 100 µM
CCRF-CEM leukemia
  TGI: > 100 µM
A498 renal
  TGI: > 100 µM
HCT-15 colon
  TGI: > 100 µM
TK-10 renal
  TGI: > 100 µM
786-0 renal
  TGI: > 100 µM
HL-60(TB) leukemia
  TGI: > 100 µM
SF-268 CNS
  TGI: > 100 µM
T-47D breast
  TGI: > 100 µM
UACC-62 melanoma
  TGI: > 100 µM
OVCAR-4 ovarian
  TGI: > 100 µM
HT29 colon
  TGI: > 100 µM
A549 NSCLC
  TGI: > 100 µM
UO-31 renal
  TGI: > 100 µM
OVCAR-3 ovarian
  TGI: > 100 µM
MDA-MB-231 breast
  TGI: > 100 µM
SNB-19 CNS
  TGI: > 100 µM
SF-539 CNS
  TGI: > 100 µM
K-562 leukemia
  TGI: > 100 µM
RPMI-8226 leukemia
  TGI: > 100 µM
NCI-H226 lung
  TGI: > 100 µM
SF-295 CNS
  TGI: > 100 µM
OVCAR-8 ovarian
  TGI: > 100 µM
NCI-H460 lung
  TGI: > 100 µM
NCI-H522 lung
  TGI: > 100 µM
MDA-MB-435
  TGI: > 100 µM
HCT-116 colon
  TGI: > 100 µM
U251 CNS
  TGI: > 100 µM
BT-549 breast
  TGI: > 100 µM
RXF 393 renal
  TGI: > 100 µM
KM12 colon
  TGI: > 100 µM
SR leukemia
  TGI: > 100 µM
NCI-H23 lung
  TGI: > 100 µM
